Active and inactive are the calls of the source. No cut-off for these calls is given here. Bridge positions count the residues as written; N and C are the ends. Peptide text beside a SMILES is read from it. * marks the point of attachment. X2 = NC(=O)CC[C@@H](CN[C@@H](Cc1ccc(O)c(I)c1)C(=O)O)N*; X1 = NC(=O)CC[C@@H](CN[C@@H](Cc1ccc(O)cc1)C(=O)O)N*
What was measured:
[1] = target: T1, Melanin-concentrating hormone receptor 1 (Homo sapiens, UniProt Q99705); assay: Displacement of[125I]MCH from human MCH1R expressed in CHO cells; format: cell-based
[2] = Lipophilicity, log D at pH 7.4; format: physicochemical; settings: buffer
[3] = target: Melanin-concentrating hormone receptor 1 (Mus musculus) (UniProt Q8JZL2); assay: Binding affinity to MCH1R in wild type mouse coronal slice […] at 500 pM by radioactivity study; settings: tested as the 35S-labelled form
[4] = target: T1, Melanin-concentrating hormone receptor 1; assay: Binding affinity to human MCH1R expressed in CHO cells by scintillation counting per mg of protein; format: cell-based
[5] = target: Melanin-concentrating hormone receptor 2 (Homo sapiens, UniProt Q969V1); assay: Displacement of [35S] 4-(1-(3,4-difluorophenyl)-2-(ethyl(3-(6-fluoro-3H-spiro[isobenzofuran-1,4'-piperidine]-1'-yl)propyl)amino)-2-oxoethyl)-3-oxopiperazine-1-sulfonic acid from human MCH2R
[6] = target: Melanin-concentrating hormone receptor 1 (Mus musculus, UniProt Q8JZL2); assay: Displacement of [35S] 4-(1-(3,4-difluorophenyl)-2-(ethyl(3-(6-fluoro-3H-spiro[isobenzofuran-1,4'-piperidine]-1'-yl)propyl)amino)-2-oxoethyl)-3-oxopiperazine-1-sulfonic acid from mouse MCH1R
[7] = target: T1, Melanin-concentrating hormone receptor 1; assay: Displacement of [35S] 4-(1-(3,4-difluorophenyl)-2-(ethyl(3-(6-fluoro-3H-spiro[isobenzofuran-1,4'-piperidine]-1'-yl)propyl)amino)-2-oxoethyl)-3-oxopiperazine-1-sulfonic acid from human MCH1R

T1 sequence (Q99705 whole entry): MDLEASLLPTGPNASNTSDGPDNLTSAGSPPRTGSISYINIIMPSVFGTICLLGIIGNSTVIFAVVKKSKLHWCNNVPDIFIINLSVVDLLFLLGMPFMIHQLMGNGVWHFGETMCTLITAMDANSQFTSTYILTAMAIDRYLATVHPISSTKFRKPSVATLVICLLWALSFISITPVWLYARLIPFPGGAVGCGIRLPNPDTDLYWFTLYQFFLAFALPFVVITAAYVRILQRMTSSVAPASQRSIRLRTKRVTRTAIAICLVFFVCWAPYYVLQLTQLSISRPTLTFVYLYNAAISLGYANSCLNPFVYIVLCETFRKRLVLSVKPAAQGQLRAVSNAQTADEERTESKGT
Melanin-concentrating hormone receptor 2, sequence (Q969V1 whole entry): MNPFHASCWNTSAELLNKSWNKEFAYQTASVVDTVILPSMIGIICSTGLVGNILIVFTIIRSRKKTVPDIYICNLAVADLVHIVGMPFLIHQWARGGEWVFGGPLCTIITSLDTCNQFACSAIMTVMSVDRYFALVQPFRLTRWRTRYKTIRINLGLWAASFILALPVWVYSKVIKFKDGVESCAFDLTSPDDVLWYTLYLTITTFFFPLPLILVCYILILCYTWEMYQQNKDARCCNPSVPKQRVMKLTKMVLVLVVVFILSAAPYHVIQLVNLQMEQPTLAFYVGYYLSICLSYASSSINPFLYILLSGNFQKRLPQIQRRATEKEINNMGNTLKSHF
Melanin-concentrating hormone receptor 1 (Mus musculus, UniProt Q8JZL2), sequence (Q8JZL2 whole entry): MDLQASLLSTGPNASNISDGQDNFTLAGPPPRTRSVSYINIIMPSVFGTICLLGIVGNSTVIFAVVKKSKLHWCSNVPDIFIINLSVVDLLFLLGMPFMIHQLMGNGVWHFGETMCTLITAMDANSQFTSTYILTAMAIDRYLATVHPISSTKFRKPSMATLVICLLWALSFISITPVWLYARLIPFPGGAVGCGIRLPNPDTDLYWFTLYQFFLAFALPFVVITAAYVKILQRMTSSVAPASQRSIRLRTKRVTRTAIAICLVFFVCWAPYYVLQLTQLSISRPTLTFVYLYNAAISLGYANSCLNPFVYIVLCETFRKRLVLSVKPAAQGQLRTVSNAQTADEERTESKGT
Melanin-concentrating hormone receptor 1 (Mus musculus), sequence (Q8JZL2 whole entry): as above

Question: For `CCN(CCCN1CCC2(CC1)OCc1ccc(F)cc12)C(=O)C(c1ccc(F)c(F)c1)N1CCN(C(=O)OC(C)(C)C)CC1=O` (stereo in doubt; 5a), which IC50 [1] is on record?
Answer: 0.24 nM

Question: For `CN(CCCN1CCC2(CC1)OCc1ccccc12)C(=O)C(c1ccc(F)c(F)c1)N1CCCC1=O` (centres undefined), which logD [2] is on record?
Answer: 2.2

Question: What about the IC50 [1] of the same molecule?
Answer: 2.7 nM

Question: For `CCN(CCCN1CCC2(CC1)OCc1ccc(F)cc12)C(=O)C(c1ccc(F)c(F)c1)N1CCCC1=O` (centres undefined), which IC50 [1] is on record?
Answer: 0.71 nM

Question: What does the source list for `CCN(CCCN1CCC2(CC1)OCc1ccc(F)cc12)C(=O)C(c1ccc(F)c(F)c1)N1CCN(S(C)(=O)=O)CC1=O` (centres undefined)?
Answer: Activity [3]: Active; Bmax ([4]; tested as the 35S-labelled form): 23 pmol

Question: Which Bmax ([4]; tested as the 125I-labelled form) does the source give for `CSCC[C@@H]1NC(=O)[C@@H](NC(=O)[C@H](CCCNC(=N)N)NC(=O)[C@H](CC(C)C)NC(=O)[C@H](CCSC)NC(=O)[C@H](CC(=O)O)NC(=O)[C@H](Cc2ccccc2)NC(=O)[C@@H](N)CC(=O)O)CSSC[C@@H](C(=O)N[C@@H](Cc2c[nH]c3ccccc23)C(=O)N[C@@H](CCC(N)=O)CN[C@@H](Cc2ccc(O)c(I)c2)C(=O)O)NC(=O)[C@@H]2CCCN2C(=O)[C@H](CCCNC(=N)N)NC(=O)[C@H](Cc2ccccc2)NC(=O)[C@H](C(C)C)NC(=O)[C@H](CCCNC(=N)N)NC(=O)CNC(=O)[C@H](CC(C)C)NC1=O` (H-DFDMLRCMLGRVFRPCW-X2; disulfide 7-16) here?
Answer: 24 pmol

Question: For `CCN(CCCN1CCC2(CC1)OCc1ccc(F)cc12)C(=O)C(c1ccc(F)c(F)c1)N1CCNCC1=O` (centres undefined), which IC50 [1] is on record?
Answer: 0.87 nM

Question: Which results are given for `CCN(CCCN1CCC2(CC1)OCc1ccc(F)cc12)C(=O)C(c1ccc(F)c(F)c1)N1CCN([35S](C)(=O)=O)CC1=O` (centres undefined)?
Answer: Ki [5]: > 9700 nM; Ki [6]: 0.5 nM

Question: What does the source list for `CSCC[C@@H]1NC(=O)[C@@H](NC(=O)[C@H](CCCNC(=N)N)NC(=O)[C@H](CC(C)C)NC(=O)[C@H](CCSC)NC(=O)[C@H](CC(=O)O)NC(=O)[C@H](Cc2ccccc2)NC(=O)[C@@H](N)CC(=O)O)CSSC[C@@H](C(=O)N[C@@H](Cc2c[nH]c3ccccc23)C(=O)N[C@@H](CCC(N)=O)CN[C@@H](Cc2ccc(O)cc2)C(=O)O)NC(=O)[C@@H]2CCCN2C(=O)[C@H](CCCNC(=N)N)NC(=O)[C@H](Cc2ccccc2)NC(=O)[C@H](C(C)C)NC(=O)[C@H](CCCNC(=N)N)NC(=O)CNC(=O)[C@H](CC(C)C)NC1=O` (H-DFDMLRCMLGRVFRPCW-X1; disulfide 7-16)?
Answer: Ki [5]: 1.6 nM; Ki [7]: 0.034 nM; Ki [6]: 0.052 nM

Question: For `CCN(CCCN1CCC2(CC1)OCc1ccc(F)cc12)C(=O)C(c1ccc(F)c(F)c1)N1CCN(C(=O)OC(C)(C)C)CC1=O` (stereo in doubt; 5b), which IC50 [1] is on record?
Answer: 145 nM
